Test results taken from patent US4782139A, “Selective chemical removal of a protein amino-terminal residue” (Eli Lilly and Company, priority 1986, dated 1988).
Blank lines part the entries; values can stand above or below the compound they belong to. Residues, ends and D or L forms follow the SMILES beside them. No end group written: not given here.

Legend:
[1] = Protein stability under organic cleavage conditions, reverse phase HPLC; settings: 40° C.; for Protein Stability, relative percent remaining: against an untreated external control
Procedure: Analysis of the products obtained via the foregoing cleavage methods upon a representative sampling of peptides and proteins was assessed by high performance anion exchange and reverse phase chromatography. Anion exchange chromatography was conducted on a Mono Q column in a 0.05M Tris, pH 8.0 buffer containing 30% acetonitrile. Elution was provided using a linear gradient of sodium chloride. Reverse phase analysis was performed on a Zorbax C8, 150Å pore size column using an acetonitrile gradient in 0.1M ammonium phosphate at 45° C., pH 7.0.

[2] = Organic cleavage conditions: diketopiperazine formation and disappearance of starting peptide, reverse phase chromatography; format: physicochemical
From the text: […] A molecular sieves for one week. […] The rate of cleavage was monitored by appearance of methionyl-proline diketopiperazine formation and disappearance of starting peptide as measured in reverse phase chromatographic analysis. Chromatography was achieved using a 0.46×25 cm column of Ultrosphere C18 in 0.1% trifluoroacetic acid (TFA), using an acetonitrile gradient to effect elution. The reaction was stopped at each analysis time point by ten-fold dilution with 0.1% trifluoroacetic acid. The diketopiperazine peak was collected and its identity confirmed by amino acid and mass spectral analysis.

[3] = Protein stability under organic cleavage conditions, anion exchange HPLC; format: physicochemical; settings: 40° C.
Procedure: Anion exchange chromatography was conducted on a Mono Q column in a 0.05M Tris, pH 8.0 buffer containing 30% acetonitrile. Elution was provided using a linear gradient of sodium chloride. Reverse phase analysis was performed on a Zorbax C8, 150Å pore size column using an acetonitrile gradient in 0.1M ammonium phosphate at 45° C., pH 7.0.

Compound: Proinsulin
Protein Stability, relative percent remaining ([1]; 1 M HOAc/DMF, 2 h): 86% | Protein Stability, relative percent remaining ([1]; 1 M HOAc/DMF, 24 h): 43% | Protein Stability, relative percent remaining ([1]; 1 M HOAc/DMF, 48 h): 30% | Protein Stability, relative percent remaining ([1]; 1 M HOAc/DMSO, 2 h): 97% | Protein Stability, relative percent remaining ([1]; 1 M HOAc/DMSO, 24 h): 70% | Protein Stability, relative percent remaining ([1]; 1 M HOAc/DMSO, 48 h): 86%

quantity of starting material remaining ([2]; 1 M HOAc/CH2 Cl2, 25° C., 0 h): 100% | quantity of starting material remaining ([2]; 1 M HOAc/CH2 Cl2, 25° C., 2 h): 104% | quantity of starting material remaining ([2]; 1 M HOAc/CH2 Cl2, 25° C., 4 h): 96% | quantity of starting material remaining ([2]; 1 M HOAc/CH2 Cl2, 25° C., 6 h): 99% | quantity of starting material remaining ([2]; 1 M HOAc/CH2 Cl2, 25° C., 24 h): 80% | quantity of starting material remaining ([2]; 1 M HOAc/CH3 CN, 25° C., 0 h): 100% | quantity of starting material remaining ([2]; 1 M HOAc/CH3 CN, 25° C., 2 h): 114% | quantity of starting material remaining ([2]; 1 M HOAc/CH3 CN, 25° C., 4 h): 105% | quantity of starting material remaining ([2]; 1 M HOAc/CH3 CN, 25° C., 6 h): 99% | quantity of starting material remaining ([2]; 1 M HOAc/CH3 CN, 25° C., 24 h): 66% | quantity of starting material remaining ([2]; 1 M HOAc/DMF, 25° C., 0 h): 100% | quantity of starting material remaining ([2]; 1 M HOAc/DMF, 25° C., 2 h): 88% | quantity of starting material remaining ([2]; 1 M HOAc/DMF, 25° C., 4 h): 71% | quantity of starting material remaining ([2]; 1 M HOAc/DMF, 25° C., 6 h): 57% | quantity of starting material remaining ([2]; 1 M HOAc/DMF, 25° C., 24 h): 11% | quantity of starting material remaining ([2]; 1 M HOAc/DMSO, determined at 40° C., 0 h): 100% | quantity of starting material remaining ([2]; 1 M HOAc/DMSO, determined at 40° C., 2 h): 73% | quantity of starting material remaining ([2]; 1 M HOAc/DMSO, determined at 40° C., 4 h): 56% | quantity of starting material remaining ([2]; 1 M HOAc/DMSO, determined at 40° C., 24 h): 6% | quantity of starting material remaining ([2]; 1 M HOAc/MeOH, 25° C., 0 h): 100% | quantity of starting material remaining ([2]; 1 M HOAc/MeOH, 25° C., 2 h): 101% | quantity of starting material remaining ([2]; 1 M HOAc/MeOH, 25° C., 4 h): 99% | quantity of starting material remaining ([2]; 1 M HOAc/MeOH, 25° C., 6 h): 99% | quantity of starting material remaining ([2]; 1 M HOAc/MeOH, 25° C., 24 h): 97% | quantity of starting material remaining ([2]; 1 M HOAc/nPrOH, 25° C., 2 h): 100% | quantity of starting material remaining ([2]; 1 M HOAc/nPrOH, 25° C., 4 h): 97% | quantity of starting material remaining ([2]; 1 M HOAc/nPrOH, 25° C., 6 h): 94% | quantity of starting material remaining ([2]; 1 M HOAc/nPrOH, 25° C., 24 h): 72%
Compound: CSCC[C@H](N)C(=O)N1CCC[C@H]1C(=O)NCC(=O)NCC(N)=O [Met--Pro--Gly--Gly--NH2] (H-MPGG-NH2)

Compound: insulin Achain Ssulfonate [A(SO3^- )4, reference compound]
Protein Stability, relative percent remaining ([1]; 1 M HOAc/DMF, 2 h): 100% | Protein Stability, relative percent remaining ([1]; 1 M HOAc/DMF, 24 h): 58% | Protein Stability, relative percent remaining ([1]; 1 M HOAc/DMSO, 2 h): 100% | Protein Stability, relative percent remaining ([1]; 1 M HOAc/DMSO, 24 h): 100% | Protein Stability, relative percent remaining ([1]; 1 M HOAc/DMSO, 48 h): 96%

Compound: insulin Bchain Ssulfonate [B(SO3^- )2, reference compound]
Protein Stability, relative percent remaining ([1]; 1 M HOAc/DMF, 2 h): 97% | Protein Stability, relative percent remaining ([1]; 1 M HOAc/DMF, 24 h): 62% | Protein Stability, relative percent remaining ([1]; 1 M HOAc/DMSO, 2 h): 94% | Protein Stability, relative percent remaining ([1]; 1 M HOAc/DMSO, 24 h): 106%

Compound: methionyl human growth hormone
Stability, determined by anion exchange HPLC ([3]; 0.33 M HOAc/DMF, 2 h): 78 | Stability, determined by anion exchange HPLC ([3]; 0.33 M HOAc/DMF, 4 h): 68 | Stability, determined by anion exchange HPLC ([3]; 0.33 M HOAc/DMF, 24 h): 34 | Stability, determined by anion exchange HPLC ([3]; 0.33 M HOAc/DMSO, 2 h): 100 | Stability, determined by anion exchange HPLC ([3]; 0.33 M HOAc/DMSO, 4 h): 99 | Stability, determined by anion exchange HPLC ([3]; 0.33 M HOAc/DMSO, 24 h): 86 | Stability, determined by anion exchange HPLC ([3]; 0.33 M HOAc/NMP, 2 h): 90 | Stability, determined by anion exchange HPLC ([3]; 0.33 M HOAc/NMP, 4 h): 89 | Stability, determined by anion exchange HPLC ([3]; 0.33 M HOAc/NMP, 24 h): 75 | Stability, determined by reverse phase HPLC ([1]; 0.33 M HOAc/DMF, 2 h): 78 | Stability, determined by reverse phase HPLC ([1]; 0.33 M HOAc/DMF, 4 h): 65 | Stability, determined by reverse phase HPLC ([1]; 0.33 M HOAc/DMF, 24 h): 45 | Stability, determined by reverse phase HPLC ([1]; 0.33 M HOAc/DMSO, 2 h): 91 | Stability, determined by reverse phase HPLC ([1]; 0.33 M HOAc/DMSO, 4 h): 77 | Stability, determined by reverse phase HPLC ([1]; 0.33 M HOAc/DMSO, 24 h): 75 | Stability, determined by reverse phase HPLC ([1]; 0.33 M HOAc/NMP, 2 h): 85 | Stability, determined by reverse phase HPLC ([1]; 0.33 M HOAc/NMP, 4 h): 70 | Stability, determined by reverse phase HPLC ([1]; 0.33 M HOAc/NMP, 24 h): 77

Protein Stability, relative percent remaining ([1]; 1 M HOAc/DMF, 2 h): 42% | Protein Stability, relative percent remaining ([1]; 1 M HOAc/DMF, 24 h): 40% | Protein Stability, relative percent remaining ([1]; 1 M HOAc/DMF, 48 h): 32% | Protein Stability, relative percent remaining ([1]; 1 M HOAc/DMSO, 2 h): 52% | Protein Stability, relative percent remaining ([1]; 1 M HOAc/DMSO, 24 h): 90% | Protein Stability, relative percent remaining ([1]; 1 M HOAc/DMSO, 48 h): 86%
Compound: APLEPEYPGDNATPEQMAQYAAELRRYINMLTRPRY-NH2 [bPP, bovine pancreatic polypeptide, reference compound]
